System: L1210
Assay: In vitro growth inhibition of L1210 tumor cells
Type: functional, Mus musculus

| Structure (SMILES) | Log 1/ID50 |
| --- | --- |
| NS(=O)(=O)c1ncnc2c1ncn2[C@@H]1O[C@H](CO)[C@@H](O)[C@@H]1O | 4 |
| NS(=O)(=O)c1ncnc2c1ncn2[C@@H]1O[C@H](CO)[C@@H](O)[C@H]1O | 4.92 |
| NSc1nc(N)nc2c1ncn2[C@H]1C[C@H](O)[C@@H](CO)O1 | 6.06 |
| NSc1ncnc2c1ncn2[C@H]1C[C@H](O)[C@@H](CO)O1 | 6.66 |
| NS(=O)(=O)c1ncnc2c1ncn2[C@H]1C[C@H](O)[C@@H](CO)O1 | 4.56 |
| NSc1ncnc2c([C@@H]3O[C@H](CO)[C@@H](O)[C@H]3O)n[nH]c12 | 4.69 |
| N=C1N=C(S)C2N=CN([C@H]3C[C@H](O)[C@@H](CO)O3)C2=N1 (stereo partly specified) | 7.3 |
| NSc1ncnc2c1ncn2C1O[C@H](CO)[C@@H](O)[C@H]1O (stereo partly specified) | 5.22 |
| C[C@H]1OC(n2cnc3c(SN)nc(N)nc32)[C@H](O)[C@@H]1O (stereo partly specified) | 6 |
| Nc1nc(S(N)(=O)=O)c2ncn(C3O[C@H](CO)[C@@H](O)[C@H]3O)c2n1 (stereo partly specified) | 5.7 |
| NC(=O)c1ncnc2c1cnn2C1O[C@H](CO)[C@@H](O)[C@H]1O (stereo partly specified) | 4.38 |
| NSc1nc(N)nc2c1ncn2C1O[C@H](CO)[C@@H](O)[C@H]1O (stereo partly specified) | 6.52 |
| C[C@H]1OC(n2cnc3c(S(N)(=O)=O)nc(N)nc32)[C@H](O)[C@@H]1O (stereo partly specified) | 5.42 |
| NSc1ncnc2c1cnn2C1O[C@H](CO)[C@@H](O)[C@H]1O (stereo partly specified) | 4.51 |
| Nc1nc([S+](N)[O-])c2ncn([C@@H]3C[C@@H](O)[C@H](CO)O3)c2n1 (mixture of isomers) | 4.45 |
| N[S+]([O-])c1ncnc2c1ncn2[C@@H]1C[C@@H](O)[C@H](CO)O1 (mixture of isomers) | 4.6 |
| Nc1cc2c(ncn2C2O[C@H](CO)[C@@H](O)[C@H]2O)c([S+](N)[O-])n1 (mixture of isomers) | 3 |
| Nc1nc([S+](N)[O-])c2ncn(C3O[C@H](CO)[C@@H](O)[C@H]3O)c2n1 (mixture of isomers) | 6 |
| N[S+]([O-])c1ncnc2c1ncn2C1O[C@H](CO)[C@@H](O)[C@H]1O (mixture of isomers) | 4 |
| C[C@H]1OC(n2cnc3c([S+](N)[O-])nc(N)nc32)[C@H](O)[C@@H]1O (mixture of isomers) | 5.55 |
| Nc1nc([S+](N)[O-])c2ncn([C@@H]3C[C@@H](O)[C@H](CO)O3)c2n1 (stereo in doubt; 9) | 5.52 |

Source: ChEMBL document CHEMBL1125230, “Analysis of the in vitro antitumor activity of novel purine-6-sulfenamide, -sulfinamide, and -sulfonamide nucleosides and certain related compounds using a computer-aided receptor modeling procedure” (1991)
